Values of other authors as cited in patent US6355670B1, “Use of estrogen antagonists and estrogen agonists in inhibiting pathological conditions” (Pfizer, Inc., priority 1996, dated 2002).

Experiments:
[1] = in vivo or in vitro
estrogen receptor = target: T1, estrogen receptor (Homo sapiens, UniProt P03372); details: higher, relative to tamoxifen
T1 sequence (P03372 1-595): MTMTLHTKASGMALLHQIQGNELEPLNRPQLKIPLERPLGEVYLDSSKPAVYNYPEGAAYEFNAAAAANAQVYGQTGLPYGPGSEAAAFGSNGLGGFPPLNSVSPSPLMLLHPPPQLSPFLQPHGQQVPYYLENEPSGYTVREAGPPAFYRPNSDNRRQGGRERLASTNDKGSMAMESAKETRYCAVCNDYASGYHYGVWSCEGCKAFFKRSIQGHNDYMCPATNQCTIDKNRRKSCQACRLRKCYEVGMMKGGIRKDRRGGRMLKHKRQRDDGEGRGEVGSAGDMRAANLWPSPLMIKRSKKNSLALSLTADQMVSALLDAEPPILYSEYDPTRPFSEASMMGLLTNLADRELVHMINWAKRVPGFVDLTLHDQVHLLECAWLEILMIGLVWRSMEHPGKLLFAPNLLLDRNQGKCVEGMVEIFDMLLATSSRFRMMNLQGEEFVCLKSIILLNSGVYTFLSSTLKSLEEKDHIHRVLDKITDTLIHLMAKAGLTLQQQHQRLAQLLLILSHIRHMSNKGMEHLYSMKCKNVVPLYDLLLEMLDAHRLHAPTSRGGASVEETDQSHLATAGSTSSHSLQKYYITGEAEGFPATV

[2] = tested on: intact or ovariectomized female rats
[3] = tested on: streptozotocin diabetic rats; details: implanted

CC/C(=C(/c1ccc(OCCN(C)C)cc1)c1cccc(O)c1)c1ccccc1 [droloxifene, 3-hydroxytamoxifen]
carcinogenic or mutagenic effects [1]: devoid of in vivo or in vitro carcinogenic or nutagenic effects | binding affinity to the estrogen receptor compared to tamoxifen (estrogen receptor): 10-60 fold

CC/C(=C(\c1ccccc1)c1ccc(OCCN(C)C)cc1)c1ccccc1 [tamoxifen]
liver tumors (rats): causes liver tumors in rats

C[C@]12CC[C@H]3[C@@H](CCC4=CC(=O)CC[C@@]43C)[C@@H]1CC[C@@H]2O [testosterone]
insulin resistance [2]: marked insulin resistance | ability of residual insulin to maintain glycemic control [3]: antagonized the ability of residual insulin to maintain glycemic control
